Measurements reported in patent US11667651B2, “Aminopyridine derivatives as phosphatidylinositol phosphate kinase inhibitors” (HiberCell, Inc., priority 2017, dated 2023).

Columns and labels:
Assay type in all cases: biochemical
PIP4K2B = molecular target: T1, PIP4K2B (Homo sapiens, UniProt P78356); test: Trans-FI P kinase assay PIP4K2B (Table 4); details: compounds listed under IC50 bins; read-out: Trans-FI P kinase assays: PIP4K2B IC50
T1 construct: made in house; host or cells: E. coli
T1 sequence (P78356 1-416): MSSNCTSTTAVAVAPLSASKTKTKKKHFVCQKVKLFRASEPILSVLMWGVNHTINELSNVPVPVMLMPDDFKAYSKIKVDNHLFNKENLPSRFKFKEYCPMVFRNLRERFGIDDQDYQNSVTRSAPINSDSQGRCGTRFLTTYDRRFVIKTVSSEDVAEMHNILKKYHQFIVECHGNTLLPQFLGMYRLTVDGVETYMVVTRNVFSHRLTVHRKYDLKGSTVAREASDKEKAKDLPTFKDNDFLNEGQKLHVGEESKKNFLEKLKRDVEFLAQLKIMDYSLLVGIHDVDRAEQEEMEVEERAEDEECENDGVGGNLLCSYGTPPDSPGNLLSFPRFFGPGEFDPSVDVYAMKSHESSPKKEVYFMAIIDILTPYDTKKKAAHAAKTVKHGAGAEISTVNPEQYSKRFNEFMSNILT
In short: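 Transcreener FI detection (Ex 584/Em 623) of GDP, converted via calibration curve, gives IC50 from residual activity versus log concentration (highest 4.8 μM). Reaction: 80 μM PI5P plus DOPE carrier, 100 μM GTP, 5 nM GST-tagged enzyme, pH 7.3 HEPES with MgCl2 and 5% DMSO, 2 h after 1 h enzyme-compound preincubation at 27° C.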

PIP4K2A [1] = molecular target: T2, PIP4K2A (Homo sapiens, UniProt P48426); test: ADP-glo kinase assay PIP4K 2A (Table 3); parameters: made in house; host or cells: E. coli; details: compounds listed under IC50 bins
T2 sequence (P48426 1-406): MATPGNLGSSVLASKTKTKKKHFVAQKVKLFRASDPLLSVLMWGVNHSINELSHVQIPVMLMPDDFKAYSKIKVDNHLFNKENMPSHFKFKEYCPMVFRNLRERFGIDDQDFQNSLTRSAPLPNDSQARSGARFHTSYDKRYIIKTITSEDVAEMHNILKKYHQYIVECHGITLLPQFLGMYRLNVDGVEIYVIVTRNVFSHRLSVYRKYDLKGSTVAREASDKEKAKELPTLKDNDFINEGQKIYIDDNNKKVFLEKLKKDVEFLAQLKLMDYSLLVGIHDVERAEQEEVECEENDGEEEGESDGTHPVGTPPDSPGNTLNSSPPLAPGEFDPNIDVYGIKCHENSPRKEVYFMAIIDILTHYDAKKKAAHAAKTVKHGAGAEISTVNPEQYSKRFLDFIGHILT
In short: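 Full-length PIP4K2A (4 nM in the mix) with 100 μM PI(5)P diC8 pre-incubated 15 min with compound in MOPS pH 7.2, 25 mM MgCl2; ATP added (60 μM solution), 1 h at RT. ADP formed read by ADP-Glo luminescence; 10-point curves versus DMSO controls fitted to IC50.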

PIP4K2A [2] = molecular target: T2, PIP4K2A; test: Kinase Assay PIP4K2 A (Table 2); parameters: 4 nM PIP4K2A (full length protein, SignalChem); purchased SignalChem; details: compounds listed under IC50 bins
In short: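 Full-length PIP4K2A (4 nM in the added mix, with 100 μM PI(5)P diC8) pre-incubated 15 min at RT with compounds (10-point, 3-fold series) in 20 mM MOPS pH 7.2, 25 mM MgCl2, 0.005% Tween 20. ATP added from a 60 μM solution, 1 h at RT; ADP-Glo luminescence, IC50 fitted from % inhibition versus DMSO.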

| Compound | IC50 (PIP4K2B) | IC50 (PIP4K2A [1]) | IC50 (PIP4K2A [2]) |
| --- | --- | --- | --- |
| O=C(c1cccc2ncc(Nc3ccc(-c4ccc(N5CCCC5=O)cc4)cn3)cc12)N1CCCC1 [Example 148, 1-(4-(6-((5-(pyrrolidine-1-carbonyl)quinolin-3-yl)amino)pyridin-3-yl)phenyl)pyrrolidin-2-one] | > 1000 nM | > 1000 nM | 100 to 1000 nM |
| CN(C)C/C=C/C(=O)NCC(=O)Nc1cccc(CCC(=O)Nc2cncc(Nc3ccc(-c4ccc(C(=O)N(C)C)cc4)cn3)c2)c1 [Example 108, (E)-4-(6-((5-(3-(3-(2-(4-(dimethylamino)but-2-enamido)acetamido)phenyl)propanamido)pyridin-3-yl)amino)pyridin-3-yl)-N,N-dimethylbenzamide] | > 1000 nM | 100 to 1000 nM | 100 to 1000 nM |
| CCO[C@H]1C[C@@H]1C(=O)Nc1cncc(Nc2ccc(-c3ccc(N4CCCC4=O)cc3)cn2)c1 [Example 252, (1S,2S)-2-ethoxy-N-(5-((5-(4-(2-oxopyrrolidin-1-yl)phenyl)pyridin-2-yl)amino)pyridin-3-yl)cyclopropane-1-carboxamide] | 10 to 100 nM | 10 to 100 nM | 1 to 10 nM |
| CC(C)(O)C(=O)N1CCOc2ncc(Nc3ccc(-c4ccc(N5CCCC5=O)cc4)cn3)cc21 [Example 238, 1-(4-(6-((1-(2-hydroxy-2-methylpropanoyl)-2,3-dihydro-1H-pyrido[2,3-b][1,4]oxazin-7-yl)amino)pyridin-3-yl)phenyl)pyrrolidin-2-one] | 10 to 100 nM | 1 to 10 nM | 1 to 10 nM |
| CN(C)C/C=C/C(=O)Nc1cccc(C(=O)Nc2cncc(Nc3ccc(-c4ccc(C(=O)N(C)C)cc4)cn3)c2)c1 [Example 100, (E)-4-(6-((5-(3-(4-(dimethylamino)but-2-enamido)benzamido)pyridin-3-yl)amino)pyridin-3-yl)-N,N-dimethylbenzamide] | 10 to 100 nM | 10 to 100 nM | 1 to 10 nM |
| CN(C)C(=O)c1ccc(-c2ccc(Nc3cncc(N4CCC(Cc5cccc(N)c5)C4=O)c3)nc2)cc1 (stereo not drawn) [Example 134, 4-(6-((5-(3-(3-aminobenzyl)-2-oxopyrrolidin-1-yl)pyridin-3-yl)amino)pyridin-3-yl)-N,N-dimethylbenzamide] | 10 to 100 nM | 10 to 100 nM | 10 to 100 nM |
| O=C1CCCN1c1ccc(-c2ccc(Nc3cnc4c(c3)N3C(=O)CC[C@H]3CO4)nc2)c(F)c1 [Example 191, (S)-2-((5-(2-fluoro-4-(2-oxopyrrolidin-1-yl)phenyl)pyridin-2-yl)amino)-6,6a,7,8-tetrahydro-9H-pyrido[2,3-b]pyrrolo[1,2-d][1,4]oxazin-9-one] | 10 to 100 nM | 10 to 100 nM | 1 to 10 nM |
| CS(=O)(=O)N1CCOc2ncc(Nc3ccc(-c4ccc(N5CCCC5=O)cc4)cn3)cc21 [Example 156, 1-(4-(6-((1-(methylsulfonyl)-2,3-dihydro-1H-pyrido[2,3-b][1,4]oxazin-7-yl)amino)pyridin-3-yl)phenyl)pyrrolidin-2-one] | 10 to 100 nM | 10 to 100 nM | 1 to 10 nM |
| CN(C)C(=O)c1ccc(-c2ccc(Nc3ccc(CCN4CCOCC4)nc3)nc2)cc1 [Example 51, N,N-dimethyl-4-(6-((6-(2-morpholinoethyl)pyridin-3-yl)amino)pyridin-3-yl)benzamide] | > 1000 nM | > 1000 nM | > 1000 nM |
| O=C1CCCN1c1ccc(-c2ccc(Nc3cnc4c(c3)N3C(=O)C(O)C[C@H]3CO4)nc2)cc1F (stereo partly drawn) [Example 267, (6aS)-2-((5-(3-fluoro-4-(2-oxopyrrolidin-1-yl)phenyl)pyridin-2-yl)amino)-8-hydroxy-6,6a,7,8-tetrahydro-9H-pyrido[2,3-b]pyrrolo[1,2-d][1,4]oxazin-9-one] | 10 to 100 nM | 10 to 100 nM | 1 to 10 nM |

The next lines start with the values.

| IC50 (PIP4K2B) | IC50 (PIP4K2A [1]) | IC50 (PIP4K2A [2]) | Compound |
| --- | --- | --- | --- |
| 10 to 100 nM | 1 to 10 nM | 1 to 10 nM | O=C1CCCN1c1ccc(-c2ccc(Nc3cnc4c(c3)N3C(=O)CC[C@H]3CO4)nc2)cc1 [Example 84, (S)-2-((5-(4-(2-oxopyrrolidin-1-yl)phenyl)pyridin-2-yl)amino)-6,6a,7,8-tetrahydro-9H-pyrido[2,3-b]pyrrolo[1,2-d][1,4]oxazin-9-one] |
| 10 to 100 nM | 10 to 100 nM | 10 to 100 nM | CN(C)C(=O)c1ccc(-c2ccc(Nc3cncc(NC(=O)c4ccc5cc[nH]c5c4)c3)nc2)cc1 [Example 135, N-(5-((5-(4-(dimethylcarbamoyl)phenyl)pyridin-2-yl)amino)pyridin-3-yl)-1H-indole-6-carboxamide] |
| 10 to 100 nM | 1 to 10 nM | 1 to 10 nM | CN(C)C(=O)c1ccc(-c2ccc(Nc3cncc(N4CCN(Cc5ccccc5)C4=O)c3)nc2)cc1 [Example 73, 4-(6-((5-(3-benzyl-2-oxoimidazolidin-1-yl)pyridin-3-yl)amino)pyridin-3-yl)-N,N-dimethylbenzamide] |
| 10 to 100 nM | 1 to 10 nM | 1 to 10 nM | O=C1CCCN1c1ccc(-c2cnc(Nc3cncc(N4CCN(Cc5cscn5)C4=O)c3)cn2)cc1 [Example 164, 1-(5-((5-(4-(2-oxopyrrolidin-1-yl)phenyl)pyrazin-2-yl)amino)pyridin-3-yl)-3-(thiazol-4-ylmethyl)imidazolidin-2-one] |
| 10 to 100 nM | 10 to 100 nM | 10 to 100 nM | COc1ccc(C(=O)Nc2cncc(Nc3ccc(-c4ccc(C(=O)N(C)C)cc4)cn3)c2)cc1 [Example 142, 4-(6-((5-(4-methoxybenzamido)pyridin-3-yl)amino)pyridin-3-yl)-N,N-dimethylbenzamide] |
| 10 to 100 nM | 1 to 10 nM | ≤ 1 nM | CN(C)C(=O)c1ccc(-c2ccc(Nc3cncc(N4CCN(Cc5ccc(N)cc5)C4=O)c3)nc2)cc1 [Example 222, 4-(6-((5-(3-(4-aminobenzyl)-2-oxoimidazolidin-1-yl)pyridin-3-yl)amino)pyridin-3-yl)-N,N-dimethylbenzamide] |
| 10 to 100 nM | 10 to 100 nM | 1 to 10 nM | Cc1nc(Nc2cnc3c(c2)N2C(=O)CC[C@H]2CO3)ccc1-c1ccc(N2CCCC2=O)cc1 [Example 190, (S)-2-((6-methyl-5-(4-(2-oxopyrrolidin-1-yl)phenyl)pyridin-2-yl)amino)-6,6a,7,8-tetrahydro-9H-pyrido[2,3-b]pyrrolo[1,2-d][1,4]oxazin-9-one] |
| 10 to 100 nM | 100 to 1000 nM | 10 to 100 nM | CN(C)C(=O)c1ccc(-c2ccc(Nc3cnc4c(c3)N(C(=O)OC(C)(C)C)CCO4)nc2)cc1 [Example 45, tert-butyl 7-((5-(4-(dimethylcarbamoyl)phenyl)pyridin-2-yl)amino)-2,3-dihydro-1H-pyrido[2,3-b][1,4]oxazine-1-carboxylate] |
| 10 to 100 nM | 1 to 10 nM | 1 to 10 nM | O=C1CCCN1c1ccc(-c2ccc(Nc3cnc4c(c3)N3C(=O)CC[C@H]3CO4)nc2)cc1F [Example 246, (S)-2-((5-(3-fluoro-4-(2-oxopyrrolidin-1-yl)phenyl)pyridin-2-yl)amino)-6,6a,7,8-tetrahydro-9H-pyrido[2,3-b]pyrrolo[1,2-d][1,4]oxazin-9-one] |
| 10 to 100 nM | 1 to 10 nM | 1 to 10 nM | O=C1CCCN1c1ccc(-c2ccc(Nc3cnc4c(c3)N(C(=O)C3(O)CC3)CCO4)nc2)cc1 [Example 233, 1-(4-(6-((1-(1-hydroxycyclopropane-1-carbonyl)-2,3-dihydro-1H-pyrido[2,3-b][1,4]oxazin-7-yl)amino)pyridin-3-yl)phenyl)pyrrolidin-2-one] |
| 1 to 10 nM | 1 to 10 nM | ≤ 1 nM | COc1cc(Nc2cnc3c(c2)N2C(=O)CC[C@H]2CO3)ncc1-c1ccc(N2CCCC2=O)cc1 [Example 179, (S)-2-((4-methoxy-5-(4-(2-oxopyrrolidin-1-yl)phenyl)pyridin-2-yl)amino)-6,6a,7,8-tetrahydro-9H-pyrido[2,3-b]pyrrolo[1,2-d][1,4]oxazin-9-one] |
